{
  "source": "patent US11237155B2",
  "about": "“Screening methods using olfactory receptors and novel compounds identified using the same” (MARS, INCORPORATED, priority 2016, dated 2022)",
  "type_in_all_cases": "cell-based",
  "key": {"Cat OR5A1": {"test_system": "Cat OR5A1", "assay": "CNG chAMPion assay, OR_9 (OR5A1), cat ortholog", "settings": "cat OR5A1, phase 3", "experimental": "chAMPion (CNG channel) assay. HEK293/CNG/nat-Clytin/RTP1 s endo cells were transiently transfected with plasmids encoding the respective OR and were seeded at 20,000 cells/well in 25 μL/well complete growth medium in poly-D-lysine coated black, clear-bottom 384 MTPs.\nData were analyzed with the Screenworks® software (Molecular Devices, version 4.0.0.30). Luminescence values (in RLU) were exported as maximum RLU between 10 s and 40 s. In addition to using raw values, the data were also normalized to background signals (wells containing buffer only) and expressed as “Fold change” (mean value (n=2)/mean value of buffer wells (n=2)). Data analysis and plotting of graphs was carried out using Excel (Microsoft) and GraphPad Prism (GraphPad Software, Inc.)."}, "Dog OR5A1": {"test_system": "Dog OR5A1", "assay": "CNG chAMPion assay, OR_9 (OR5A1), dog ortholog", "settings": "dog OR5A1, phase 3", "text": "This example refers to the functional expression of different feline and canine olfactory receptors (ORs). 20 OR sequences were selected, where 10 sequences have feline origins and the remaining 10 have canine origins. These ORs were subcloned into a modified expression vector suitable for the transient, functional expression of ORs. The transiently expressed receptors were then stimulated with various concentrations of different odorants aiming to deorphanize the feline and canine ORs. […] Functional expression of the different OR sets were transient in reporter cell line A or B. The transiently transfected ORs were stimulated with 3 concentrations (n=4) of different odorants (at least 3).\nchAMPion (CNG channel) assay. […]\nTwenty-four hours later, the cell medium was removed manually and cells were incubated in 20 μL/well coelenterazine (11 μM) in Tyrode buffer with 0 mM calcium for 3.5 h at 37° C. Plates were then read in a luminescence plate reader (FLIPR^TETRA, Molecular Devices) with the following camera settings: exposure time: 0.533 s, maximum gain. Luminescence was recorded for 1 min after addition of 10 μL/well compounds (3× solutions prepared in Tyrode buffer with 0 mM calcium), followed by an incubation period of 30 min at 37° C. Luminescence was again recorded for 1 min after addition of 20 μL/well Tyrode buffer with 10 mM CaCl2. […]"}, "Human OR5A1": {"molecular_target": "T1, Human OR5A1 (Homo sapiens, UniProt Q8NGJ0)", "T1 construct": "expressed in transfected cells; host or cells: HEK293 PEAKrapid/RTP1s endo (reporter cell line A)", "T1 sequence (Q8NGJ0 1-315)": "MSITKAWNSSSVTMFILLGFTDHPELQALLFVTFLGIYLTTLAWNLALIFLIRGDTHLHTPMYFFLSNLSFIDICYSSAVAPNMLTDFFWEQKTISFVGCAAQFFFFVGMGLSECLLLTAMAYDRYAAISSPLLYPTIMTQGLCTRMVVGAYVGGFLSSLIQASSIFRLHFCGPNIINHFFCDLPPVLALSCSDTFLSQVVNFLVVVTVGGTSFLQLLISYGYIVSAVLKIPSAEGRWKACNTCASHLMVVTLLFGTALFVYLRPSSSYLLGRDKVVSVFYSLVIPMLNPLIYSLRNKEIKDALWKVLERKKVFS", "assay": "CRE-NanoLuc luciferase assay, OR_9 (OR5A1), human ortholog", "settings": "human OR5A1, phase 3"}},
  "data": [
    {"smiles": "CCCCCOC(C)=O", "note": "[amyl acetate, Amyl acetate]", "values": [
      {"measurement": "receptor response (dose-response, fold change)", "setting": "Cat OR5A1", "result": "weaker responses"}
    ]},
    {"smiles": "CC(C)=CCCC(C)=CC=O", "note": "[citral, Citral]", "values": [
      {"measurement": "receptor response (dose-response, fold change)", "setting": "Cat OR5A1", "result": "no response"}
    ]},
    {"smiles": "CC(=O)/C=C/C1=C(C)CCCC1(C)C", "note": "[β-ionone, beta-Ionone]", "values": [
      {"measurement": "EC50 (rank among the four compounds)", "setting": "Dog OR5A1", "result": "lowest EC50"},
      {"measurement": "Emax (rank among the four compounds)", "setting": "Dog OR5A1", "result": "highest Emax"},
      {"measurement": "receptor response (dose-response, fold change)", "setting": "Cat OR5A1", "result": "strong response"},
      {"measurement": "receptor response (dose-response, fold change)", "setting": "Human OR5A1", "result": "responds"}
    ]}
  ]
}
